Test results taken from patent US10308643B2, “Heterocyclic compound” (Takeda Pharmaceutical Company Limited, priority 2015, dated 2019).

Columns and labels:
Assay type in all cases: biochemical
HDAC6 enzyme = molecular target: T1, HDAC6 enzyme (Homo sapiens, UniProt Q9UBN7); test: HDAC1/6 Enzyme Inhibitory Assay (HDAC-Glo I/II Assay kit), HDAC6; settings: 1 μM test compound, wells without enzyme = 100% inhibition; for inhibition at 1 µM: read-out: HDAC6 inhibitory rate (%) (1 μM)
T1 construct: transducing full length HDAC1 and HDAC6 genes into Sf-9 insect cells; GST; purchased SignalChem; host or cells: Sf-9 insect cells
T1 sequence (Q9UBN7 1-1215): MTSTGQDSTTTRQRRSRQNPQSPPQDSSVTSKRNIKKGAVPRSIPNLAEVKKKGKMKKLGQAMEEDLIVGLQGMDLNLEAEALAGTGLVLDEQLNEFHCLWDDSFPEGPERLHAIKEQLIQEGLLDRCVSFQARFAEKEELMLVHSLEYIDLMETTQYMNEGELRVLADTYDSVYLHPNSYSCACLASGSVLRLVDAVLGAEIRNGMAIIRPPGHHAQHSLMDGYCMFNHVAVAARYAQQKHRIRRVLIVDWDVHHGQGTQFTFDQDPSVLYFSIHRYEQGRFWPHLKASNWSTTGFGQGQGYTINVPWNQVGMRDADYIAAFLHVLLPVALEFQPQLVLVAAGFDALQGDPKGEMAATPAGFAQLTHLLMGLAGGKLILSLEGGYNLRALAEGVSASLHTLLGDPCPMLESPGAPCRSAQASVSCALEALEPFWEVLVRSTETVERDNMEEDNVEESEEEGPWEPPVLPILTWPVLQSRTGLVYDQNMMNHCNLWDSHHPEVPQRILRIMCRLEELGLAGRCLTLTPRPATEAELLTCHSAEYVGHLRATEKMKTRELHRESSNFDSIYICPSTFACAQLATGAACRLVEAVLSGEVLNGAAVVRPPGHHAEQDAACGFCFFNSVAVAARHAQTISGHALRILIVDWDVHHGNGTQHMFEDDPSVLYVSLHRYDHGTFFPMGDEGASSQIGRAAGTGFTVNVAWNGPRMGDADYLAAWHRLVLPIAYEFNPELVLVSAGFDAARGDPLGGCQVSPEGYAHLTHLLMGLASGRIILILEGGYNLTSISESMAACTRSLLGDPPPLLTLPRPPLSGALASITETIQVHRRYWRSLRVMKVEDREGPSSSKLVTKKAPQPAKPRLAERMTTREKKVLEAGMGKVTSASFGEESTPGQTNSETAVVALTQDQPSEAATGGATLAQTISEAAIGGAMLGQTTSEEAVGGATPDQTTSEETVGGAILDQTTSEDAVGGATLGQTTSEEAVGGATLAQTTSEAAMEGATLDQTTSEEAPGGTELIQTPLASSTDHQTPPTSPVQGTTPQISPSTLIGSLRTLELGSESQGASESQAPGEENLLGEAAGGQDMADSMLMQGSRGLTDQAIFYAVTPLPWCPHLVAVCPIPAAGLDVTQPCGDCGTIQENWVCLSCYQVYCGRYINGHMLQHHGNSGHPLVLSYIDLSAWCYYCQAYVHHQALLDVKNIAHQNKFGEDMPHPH
Summary of the method: (§1)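 Enzyme source: full-length HDAC1/HDAC6, Sf-9, GST-purified. Assay buffer 24 mM Tris-HCl (pH 7.5), 1 mM MgCl2, 0.35 mM KCl, 135 mM NaCl. Compound–enzyme 60 min RT, then HDAC-Glo reagent 20 min RT, luminescence; inhibition relative to no-enzyme control.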

HDAC9 enzyme = molecular target: T2, HDAC9 enzyme (Homo sapiens, UniProt Q9UKV0); test: HDAC9 Enzyme Inhibitory Assay (HDAC-Glo class IIa); settings: 1 μM test compound, wells without enzyme = 100% inhibition; for inhibition at 1 µM: read-out: HDAC9 inhibitory rate (%) (1 μM)
T2 construct: transducing full length HDAC9 gene into Sf-9 insect cells; made in house; host or cells: Sf-9 insect cells
T2 sequence (Q9UKV0 whole entry, species assumed): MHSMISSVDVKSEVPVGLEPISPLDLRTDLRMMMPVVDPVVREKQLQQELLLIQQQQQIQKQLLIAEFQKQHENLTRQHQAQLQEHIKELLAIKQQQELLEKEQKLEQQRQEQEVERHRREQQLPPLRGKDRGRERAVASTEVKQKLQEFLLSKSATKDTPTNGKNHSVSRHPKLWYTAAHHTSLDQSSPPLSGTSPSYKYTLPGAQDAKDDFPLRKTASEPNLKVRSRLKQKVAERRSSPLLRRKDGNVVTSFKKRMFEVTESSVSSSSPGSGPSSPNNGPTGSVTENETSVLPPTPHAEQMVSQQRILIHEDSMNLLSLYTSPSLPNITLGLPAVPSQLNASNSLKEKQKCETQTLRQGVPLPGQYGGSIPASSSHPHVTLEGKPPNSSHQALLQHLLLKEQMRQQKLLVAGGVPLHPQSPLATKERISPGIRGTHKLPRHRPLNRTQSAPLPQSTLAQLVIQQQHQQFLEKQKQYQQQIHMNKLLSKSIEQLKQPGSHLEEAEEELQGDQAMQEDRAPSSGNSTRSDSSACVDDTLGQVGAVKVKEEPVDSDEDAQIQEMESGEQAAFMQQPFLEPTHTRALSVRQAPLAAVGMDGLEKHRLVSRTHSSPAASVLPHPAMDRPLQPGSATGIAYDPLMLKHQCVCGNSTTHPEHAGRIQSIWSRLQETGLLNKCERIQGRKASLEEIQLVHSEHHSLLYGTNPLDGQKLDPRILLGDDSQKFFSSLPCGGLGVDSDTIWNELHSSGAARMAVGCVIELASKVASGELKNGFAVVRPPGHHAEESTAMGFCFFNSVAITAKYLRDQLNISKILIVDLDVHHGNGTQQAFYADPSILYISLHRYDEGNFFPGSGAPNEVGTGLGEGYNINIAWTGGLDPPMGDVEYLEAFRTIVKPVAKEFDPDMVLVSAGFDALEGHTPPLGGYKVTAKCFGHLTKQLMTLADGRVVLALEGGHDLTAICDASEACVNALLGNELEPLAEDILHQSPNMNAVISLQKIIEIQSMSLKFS
Summary of the method: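 Luminescent HDAC-Glo class IIa readout after a 20 min room-temperature reaction; relative inhibition referenced to enzyme-free wells as 100%. Test compound first preincubated 60 min with Sf-9-expressed, Ni-NTA-purified full-length HDAC9 in pH 7.5 Tris buffer containing 135 mM NaCl, 0.6 mM glutathione and 0.01% Tween-20.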

HDAC1 enzyme = molecular target: T3, HDAC1 enzyme (Homo sapiens, UniProt Q13547); test: HDAC1/6 Enzyme Inhibitory Assay (HDAC-Glo I/II Assay kit), HDAC1; settings: 1 μM test compound, wells without enzyme = 100% inhibition; for inhibition at 1 µM: read-out: HDAC1 inhibitory rate (%) (1 μM)
T3 construct: transducing full length HDAC1 and HDAC6 genes into Sf-9 insect cells; GST; purchased SignalChem; host or cells: Sf-9 insect cells
T3 sequence (Q13547 whole entry): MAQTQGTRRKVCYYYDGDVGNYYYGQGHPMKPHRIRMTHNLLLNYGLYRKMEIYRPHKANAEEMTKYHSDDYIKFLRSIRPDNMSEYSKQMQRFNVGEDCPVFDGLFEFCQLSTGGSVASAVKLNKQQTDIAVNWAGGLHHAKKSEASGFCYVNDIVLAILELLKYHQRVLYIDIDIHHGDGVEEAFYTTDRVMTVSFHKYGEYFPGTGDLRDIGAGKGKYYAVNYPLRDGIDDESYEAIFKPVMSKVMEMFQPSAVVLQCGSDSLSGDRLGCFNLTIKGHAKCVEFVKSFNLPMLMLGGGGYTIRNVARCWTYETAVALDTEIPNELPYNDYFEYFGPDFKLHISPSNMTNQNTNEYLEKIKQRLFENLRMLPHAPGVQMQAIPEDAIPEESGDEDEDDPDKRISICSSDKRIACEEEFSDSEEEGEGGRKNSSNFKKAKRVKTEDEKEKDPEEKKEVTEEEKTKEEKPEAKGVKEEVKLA
Summary of the method: as §1

Row | HDAC6 inhibitory rate (%) (1 μM) (HDAC6 enzyme) | HDAC9 inhibitory rate (%) (1 μM) (HDAC9 enzyme) | HDAC1 inhibitory rate (%) (1 μM) (HDAC1 enzyme) | HDAC6 inhibitory rate (%) (1 μM) (HDAC6 enzyme; 1 µM) | inhibition at 1 µM (HDAC6 enzyme) | inhibition at 1 µM (HDAC9 enzyme) | inhibition at 1 µM (HDAC1 enzyme) | SMILES
1 | 96% | 15% | −2% | – | – | – | – | O=C(N[C@@H]1CCCC[C@H]1N1Cc2ccc(-c3noc(C(F)(F)F)n3)cc2C1=O)N1CC2CC1CO2 (stereo partly drawn) [Example 157, N-((1R,2R)-2-(1-oxo-6-(5-(trifluoromethyl)-1,2,4-oxadiazol-3-yl)-1,3-dihydro-2H-isoindol-2-yl)cyclohexyl)-2-oxa-5-azabicyclo[2.2.1]heptane-5-carboxamide]
2 | – | 71% | 7% | 99% | – | – | – | CC(CO)(CCl)C(=O)N[C@@H]1CCCC[C@H]1N1Cc2ccc(-c3noc(C(F)(F)F)n3)cc2C1=O (relative stereo) [Example 204, 3-chloro-2-(hydroxymethyl)-2-methyl-N-(trans-2-(1-oxo-6-(5-(trifluoromethyl)-1,2,4-oxadiazol-3-yl)-1,3-dihydro-2H-isoindol-2-yl)cyclohexyl)propanamide]
3 | – | – | – | – | 98% | 57% | 1% | CC(=O)N1CC(C)(C(=O)N[C@@H]2CCCC[C@H]2N2Cc3ccc(-c4noc(C(F)(F)F)n4)cc3C2=O)C1 [Example 195, 1-acetyl-3-methyl-N-((1R,2R)-2-(1-oxo-6-(5-(trif1uoromethyl)-1,2,4-oxadiazol-3-yl)-1,3-dihydro-2H-isoindol-2-yl)cyclohexyl)azetidine-3-carboxamide]
4 | – | – | – | – | 76% | 97% | 13% | CC(=O)N1CC[C@H](N2Cc3cc(-c4noc(C(F)(F)F)n4)ccc3C2=O)[C@H](c2ccccc2)C1 (relative stereo) [Example 80, cis-2-(1-acetyl-3-phenylpiperidin-4-yl)-5-(5-(trifluoromethyl)-1,2,4-oxadiazol-3-yl)isoindolin-1-one]
5 | – | – | – | – | 89% | 73% | 7% | O=C(Cn1c(=O)oc2ccccc21)N1CCC(N2Cc3ccc(-c4noc(C(F)(F)F)n4)cc3C2=O)CC1 [Example 65, 3-(2-oxo-2-(4-(1-oxo-6-(5-(trifluoromethyl)-1,2,4-oxadiazol-3-yl)-1,3-dihydro-2H-isoindol-2-yl)piperidin-1-yl)ethyl)-1,3-benzoxazol-2(3H)-one]
6 | – | – | – | – | 98% | 90% | 33% | CC(C)(C)OC(=O)N1C[C@@H](N2Cc3ccc(-c4noc(C(F)(F)F)n4)cc3C2=O)[C@H](c2ccccc2)C1 (relative stereo) [Example 2, tert-butyl trans-3-(1-oxo-6-(5-(trifluoromethyl)-1,2,4-oxadiazol-3-yl)-1,3-dihydro-2H-isoindol-2-yl)-4-phenylpyrrolidine-1-carboxylate]
7 | – | – | – | – | 36% | 76% | 16% | CC(C)(C)OC(=O)N[C@H]1CCCC[C@@H]1N1Cc2ccc(-c3noc(C(F)(F)F)n3)cc2C1=O [Example 27, tert-butyl ((1S,2S)-2-(1-oxo-6-(5-(trifluoromethyl)-1,2,4-oxadiazol-3-yl)-1,3-dihydro-2H-isoindol-2-yl)cyclohexyl)carbamate]
8 | – | – | – | – | 99% | 24% | 5% | CN1CCC[C@@H]1C(=O)N[C@@H]1CCCC[C@H]1N1Cc2ccc(-c3noc(C(F)(F)F)n3)cc2C1=O [Example 94, 1-methyl-N-((1R,2R)-2-(1-oxo-6-(5-(trifluoromethyl)-1,2,4-oxadiazol-3-yl)-1,3-dihydro-2H-isoindol-2-yl)cyclohexyl)-D-prolinamide]
9 | – | – | – | – | 100% | 60% | 12% | O=C(N[C@@H]1COCC[C@H]1N1Cc2ccc(-c3noc(C(F)(F)F)n3)cc2C1=O)[C@@H]1CC1(F)F [Example 149, (1S)-2,2-difluoro-N-((3S,4R)-4-(1-oxo-6-(5-(trifluoromethyl)-1,2,4-oxadiazol-3-yl)-1,3-dihydro-2H-isoindol-2-yl)tetrahydro-2H-pyran-3-yl)cyclopropanecarboxamide]
10 | – | – | – | – | 99% | 64% | 16% | O=C(N[C@@H]1CCCC[C@H]1N1Cc2ccc(-c3noc(C(F)(F)F)n3)cc2C1=O)c1ccncn1 [Example 115, N-((1R,2R)-2-(1-oxo-6-(5-(trifluoromethyl)-1,2,4-oxadiazol-3-yl)-1,3-dihydro-2H-isoindol-2-yl)cyclohexyl)pyrimidine-4-carboxamide]
11 | – | – | – | – | 100% | 41% | 15% | CC1(C(=O)N[C@@H]2CCCC[C@H]2N2Cc3ccc(-c4noc(C(F)(F)F)n4)cc3C2=O)COC1 [Example 42, 3-methyl-N-((1R,2R)-2-(1-oxo-6-(5-(trifluoromethyl)-1,2,4-oxadiazol-3-yl)-1,3-dihydro-2H-isoindol-2-yl)cyclohexyl)oxetane-3-carboxamide]
12 | – | – | – | – | 99% | 93% | 41% | O=C1C[C@](Cc2ccccc2)(N2Cc3ccc(-c4noc(C(F)(F)F)n4)cc3C2=O)CN1 [Example 61, 2-((3S)-3-benzyl-5-oxopyrrolidin-3-yl)-6-(5-(trifluoromethyl)-1,2,4-oxadiazol-3-yl)isoindolin-1-one]
13 | – | – | – | – | 90% | 86% | 34% | O=C(N[C@H]1COCC[C@@H]1N1Cc2ccc(-c3noc(C(F)(F)F)n3)cc2C1=O)[C@H]1CC1(F)F [Example 221, (1R)-2,2-difluoro-N-((3R,4S)-4-(1-oxo-6-(5-(trifluoromethyl)-1,2,4-oxadiazol-3-yl)-1,3-dihydro-2H-isoindol-2-yl)tetrahydro-2H-pyran-3-yl)cyclopropanecarboxamide]
14 | – | – | – | – | 99% | 81% | 13% | O=C(c1ccccc1)N1CCC(N2Cc3ncc(-c4noc(C(F)(F)F)n4)cc3C2=O)CC1 [Example 67, 6-(1-benzoylpiperidin-4-yl)-3-(5-(trifluoromethyl)-1,2,4-oxadiazol-3-yl)-6,7-dihydro-5H-pyrrolo[3,4-b]pyridin-5-one]
15 | – | – | – | – | 96% | 99% | 95% | COc1ccc([C@@H]2CNCC[C@H]2N2Cc3ccc(-c4noc(C(F)(F)F)n4)cc3C2=O)cc1 (relative stereo) [Example 55, 2-(trans-3-(4-methoxyphenyl)piperidin-4-yl)-6-(5-(trifluoromethyl)-1,2,4-oxadiazol-3-yl)isoindolin-1-one]
16 | – | – | – | – | 98% | 48% | 9% | O=C(N[C@@H]1CCCC[C@H]1N1Cc2ccc(-c3noc(C(F)(F)F)n3)cc2C1=O)C1CC1 (relative stereo) [Example 12, trans-N-(2-(1-oxo-6-(5-(trifluoromethyl)-1,2,4-oxadiazol-3-yl)-1,3-dihydro-2H-isoindol-2-yl)cyclohexyl)cyclopropanecarboxamide]

Row | SMILES | HDAC6 inhibitory rate (%) (1 μM) (HDAC6 enzyme) | HDAC9 inhibitory rate (%) (1 μM) (HDAC9 enzyme) | HDAC1 inhibitory rate (%) (1 μM) (HDAC1 enzyme) | HDAC6 inhibitory rate (%) (1 μM) (HDAC6 enzyme; 1 µM) | inhibition at 1 µM (HDAC6 enzyme) | inhibition at 1 µM (HDAC9 enzyme) | inhibition at 1 µM (HDAC1 enzyme)
17 | CC1(C)C(C(=O)N[C@@H]2CCCC[C@H]2N2Cc3ccc(-c4noc(C(F)(F)F)n4)cc3C2=O)C1(C)C [Example 99, 2,2,3,3-tetramethyl-N-((1R,2R)-2-(1-oxo-6-(5-(trifluoromethyl)-1,2,4-oxadiazol-3-yl)-1,3-dihydro-2H-isoindol-2-yl)cyclohexyl) cyclopropanecarboxamide] | – | – | – | – | 100% | 51% | 13%
